The numbers were not newly measured in patent publication US20240122955A1, “ORAL DELIVERY” (GUANGZHOU DAZHOU BIOMEDICINE LTD., priority 2021, published 2024), which cites them from elsewhere.

Series [1] has as its target T1, SGLT2 (Homo sapiens, UniProt P31639).
T1 sequence (P31639 1-672): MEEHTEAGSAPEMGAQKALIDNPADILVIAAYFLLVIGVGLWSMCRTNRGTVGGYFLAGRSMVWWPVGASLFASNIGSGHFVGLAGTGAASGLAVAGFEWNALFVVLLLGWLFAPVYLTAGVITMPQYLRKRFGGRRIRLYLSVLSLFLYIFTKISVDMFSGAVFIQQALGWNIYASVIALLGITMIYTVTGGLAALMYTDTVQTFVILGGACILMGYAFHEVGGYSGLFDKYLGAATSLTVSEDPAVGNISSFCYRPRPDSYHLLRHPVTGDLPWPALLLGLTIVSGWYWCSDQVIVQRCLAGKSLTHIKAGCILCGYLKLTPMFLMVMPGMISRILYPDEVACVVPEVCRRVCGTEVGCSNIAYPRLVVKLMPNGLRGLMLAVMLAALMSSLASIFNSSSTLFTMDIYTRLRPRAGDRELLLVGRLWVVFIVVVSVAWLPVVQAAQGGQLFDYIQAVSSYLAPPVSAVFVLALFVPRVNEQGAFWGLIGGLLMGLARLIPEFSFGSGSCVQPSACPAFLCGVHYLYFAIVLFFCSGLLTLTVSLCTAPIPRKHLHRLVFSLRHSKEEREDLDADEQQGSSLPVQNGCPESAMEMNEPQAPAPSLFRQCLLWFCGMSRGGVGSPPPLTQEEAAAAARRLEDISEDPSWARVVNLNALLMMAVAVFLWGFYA
The settings on record: among the three FDA approved drugs canagliflozin, dapagliflozin, empagliflozin.

For series [2] the following is noted: T2D patients with high risk of cardiovascular disease events, versus the placebo group.

As to `Cc1ccc([C@@H]2O[C@H](CO)[C@@H](O)[C@H](O)[C@H]2O)cc1Cc1ccc(-c2ccc(F)cc2)s1` [canagliflozin], the “selectivity for SGLT2 compared to SGLT1” value in series [1] was “least selective”.

As to `OCC1O[C@@H](c2ccc(Cl)c(Cc3ccc(O[C@@H]4CCOC4)cc3)c2)C(O)C(O)[C@@H]1O` (stereo partly drawn) [empagliflozin], the “selectivity for SGLT2 compared to SGLT1” value in series [1] is “greatest selectivity”. Further, the “relative risk reduction in death from cardiovascular causes” value in series [2] was 38%.
